US12649723B2, “Carbonohydrazonoyl dicyanide compounds comprising 2 or more aryl or heteroaryl connected via linker and use thereof” (KOREA INSTITUTE OF SCIENCE AND TECHNOLOGY, priority 2020, dated 2026)
pIC50: −log10 of the molar value.

What was measured:
[1] = target: T1, tau protein (Homo sapiens, UniProt P10636); assay: Tau-BiFC cell model: inhibition of tau protein aggregation; type: cell-based; details: for remaining activity at 10 µM / remaining activity at 3 µM: 48 h; for remaining activity at 10 µM: read-out: Response (% @10 μM); for pIC50: Tau BiFC in cells, with Forskolin 30 μM, 48 hours; for remaining activity at 3 µM: compounds marked *: measured at 3 μM, read-out: Response
T1 construct: fused on or other part: Split fluorescent-protein halves for BiFC are fused to tau; In the published tau-BiFC line these are Venus VN173 and VC155
T1 sequence (P10636 2-441 isoform P10636-8 limits assumed): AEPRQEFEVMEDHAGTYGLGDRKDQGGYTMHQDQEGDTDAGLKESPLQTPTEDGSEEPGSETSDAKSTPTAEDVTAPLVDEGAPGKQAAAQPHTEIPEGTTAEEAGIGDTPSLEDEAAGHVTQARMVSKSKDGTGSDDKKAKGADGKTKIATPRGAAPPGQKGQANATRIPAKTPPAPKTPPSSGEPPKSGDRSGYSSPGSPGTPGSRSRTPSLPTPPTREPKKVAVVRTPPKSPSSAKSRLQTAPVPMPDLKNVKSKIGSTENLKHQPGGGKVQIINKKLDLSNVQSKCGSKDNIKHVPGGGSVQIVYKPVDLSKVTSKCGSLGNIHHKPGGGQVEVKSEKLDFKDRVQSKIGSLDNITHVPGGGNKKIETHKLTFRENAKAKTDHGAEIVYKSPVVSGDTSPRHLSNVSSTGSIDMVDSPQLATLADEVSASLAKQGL
Method in brief: (§1)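 Aggregation was induced by 30 μM Forskolin co-applied with test compound for 48 h, with screening at 1, 3, 10 μM and dose-response at 0.03–30 μM. Nuclei were stained with Hoechst (2 μg/mL) and counted against Forskolin-only wells for cytotoxicity. Inhibition came from BiFC fluorescence relative to Forskolin-only versus untreated cells, with IC50 by nonlinear regression.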

[2] = test system: Tau-BiFC cells; assay: Cell viability (cytotoxicity) in tau-BiFC cells, count of stained nuclei; type: cell-based; details: Forskolin-only group = 100% cell viability; for Cell viability (% @10 μM): compound 10 μM; for Cell viability: compounds marked *: measured at 3 μM
Method in brief: as §1

[3] = Liver microsome stability; type: in vitro ADME, human; details: amount of substrate remaining; compound 1 μM, 30 minutes, 37° C., NADPH
Protocol: (§2) The stability of liver microsomes due to the compounds prepared according to Examples 1 to 175 was confirmed. Specifically, four types of liver microsomes (human, dog, rat, and mouse, each 0.25 mg/mL), a 0.1 M phosphate buffer solution (pH 7.4), and each of the compounds at a concentration of 1 μM were mixed and pre-cultured at 37° C. for 5 minutes and further cultured at 37° C. for 30 minutes together with an NADPH generation system solution added thereto. Thereafter, the reaction was terminated by adding an acetonitrile solution containing an internal standard material (chloropropamide) and centrifuged for 5 minutes (14,000 rpm, 4° C.), and then a supernatant was injected into an LC-MS/MS system for analysis of substrate drugs to thereby evaluate metabolic stability due to 8 types of compounds.
(§3) The amount of the substrate remaining after the reaction was analyzed using the Shimadzu Nexera XR system and TSQ Vantage (Thermo). In an HPLC column, Kinetex XB-C18 (2.1 mm×100 mm, particle size of 2.6 μm; Phenomenex, USA) was used, and mobile phases were (A) distilled water containing 0.1% formic acid and (B) acetonitrile containing 0.1% formic acid. Analyst software (version 1.6.3) and Xcalibur (version 1.6.1) were used for data analysis.

[4] = Liver microsome stability; type: in vitro ADME, rat; details: amount of substrate remaining; compound 1 μM, 30 minutes, 37° C., NADPH
Protocol: as §2, §3

[5] = Liver microsome stability; type: in vitro ADME, mouse; details: amount of substrate remaining; compound 1 μM, 30 minutes, 37° C., NADPH
Protocol: as §2, §3

[6] = compound 10 μM, BiFC fluorescence, Forskolin-only group = 100% tau protein-aggregated state
[7] = Forskolin-only group = 100% tau protein-aggregated state

## N#CC(C#N)=NNc1ccc(NC(=O)c2nc3ccccc3s2)nc1 [Compound 31, (6-(benzo[d]thiazole-2-carboxamido)pyridin-3-yl)carbonohydrazonoyl dicyanide]
[1]; [6]
  remaining activity at 10 µM: 0%
[1]
  pIC50: 6.27
[2]
  Cell viability (% @10 μM): 114.3%
[3]
  Human (%): 28.7%

## N#CC(C#N)=NNc1ccc(OCc2cc3ccccc3s2)cc1 [Compound 130, (4-(benzo[b]thiophen-2-ylmethoxy)phenyl)carbonohydrazonoyl dicyanide]
[1]; [6]
  remaining activity at 10 µM: 0%
[2]
  Cell viability (% @10 μM): 113%

## N#CC(C#N)=NNc1ccc(OCCc2ccc(Cl)cc2)nc1 [Compound 131, (6-(4-chlorophenethoxy)pyridin-3-yl)carbonohydrazonoyl dicyanide]
[1]; [6]
  remaining activity at 10 µM: 10.6%
[2]
  Cell viability (% @10 μM): 33.4%

## Cc1ccc(COc2ccc(NN=C(C#N)C#N)cc2C(F)(F)F)cc1 [Compound 132, (4-(4-methylbenzyloxy)-3-(trifluoromethyl)phenyl)carbonohydrazonoyl dicyanide]
[1]; [6]
  remaining activity at 10 µM: 0%
[2]
  Cell viability (% @10 μM): 39.2%

## N#CC(C#N)=NNc1ccc(OCCc2ccc(Cl)cc2)c(C(F)(F)F)c1 [Compound 133, (4-(4-chlorophenethoxy)-3-(trifluoromethyl)phenyl)carbonohydrazonoyl dicyanide]
[1]; [6]
  remaining activity at 10 µM: 0%
[2]
  Cell viability (% @10 μM): 39.7%

## COc1ccc(CCOc2ccc(NN=C(C#N)C#N)cc2C(F)(F)F)cc1 [Compound 134, (4-(4-methoxyphenethoxy)-3-(trifluoromethyl)phenyl)carbonohydrazonoyl dicyanide]
[1]; [6]
  remaining activity at 10 µM: 0%
[2]
  Cell viability (% @10 μM): 38.1%

## N#CC(C#N)=NNc1ccc(OCCc2ccc(C(F)(F)F)cc2)c(C(F)(F)F)c1 [Compound 135, (3-(trifluoromethyl)-4-(4-(trifluoromethyl)phenethoxy)phenyl)carbonohydrazonoyl dicyanide]
[1]; [6]
  remaining activity at 10 µM: 0%
[2]
  Cell viability (% @10 μM): 41.7%

## CC(Oc1ccc(NN=C(C#N)C#N)cc1)c1ccc(C(F)(F)F)cc1 (centres unmarked) [Compound 139, (4-(1-(4-(trifluoromethyl)phenyl)ethoxy)phenyl)carbonohydrazonoyl dicyanide]
[1]; [7]
  remaining activity at 3 µM: 39%
[2]
  Cell viability: 123%

## Cc1cc(NN=C(C#N)C#N)ccc1OCc1ccccc1 [Compound 141, (4-(benzyloxy)-3-methylphenyl)carbonohydrazonoyl dicyanide]
[1]; [7]
  remaining activity at 3 µM: -25%
[1]
  pIC50: 6.06
[2]
  Cell viability: 109%

## Cc1ccc(COc2ccc(NN=C(C#N)C#N)cc2C)cc1 [Compound 142, (3-methyl-4-(4-methylbenzyloxy)phenyl)carbonohydrazonoyl dicyanide]
[1]; [7]
  remaining activity at 3 µM: -5%
[1]
  pIC50: 5.79
[2]
  Cell viability: 111%

## Cc1cnc(COc2ccc(NN=C(C#N)C#N)cc2C)cn1 [Compound 147, (3-methyl-4-((5-methylpyrazin-2-yl)methoxy)phenyl)carbonohydrazonoyl dicyanide]
[1]; [7]
  remaining activity at 3 µM: -19%
[1]
  pIC50: 6.83
[2]
  Cell viability: 98%
[3]
  Human (%): 86.4%
[4]
  Rat (%): 89%
[5]
  Mouse (%): 91.3%

## Cc1cc(NN=C(C#N)C#N)ccc1OCc1ccc(C(F)(F)F)cc1 [Compound 148, (3-methyl-4-(4-(trifluoromethyl)benzyloxy)phenyl)carbonohydrazonoyl dicyanide]
[1]; [7]
  remaining activity at 3 µM: 22%
[2]
  Cell viability: 114%
[3]
  Human (%): 77.4%
[4]
  Rat (%): 86.3%
[5]
  Mouse (%): >100%

## Cc1cc(NN=C(C#N)C#N)ccc1OCc1cccnn1 [Compound 149, (3-methyl-4-(pyridazin-3-ylmethoxy)phenyl)carbonohydrazonoyl dicyanide]
[1]; [7]
  remaining activity at 3 µM: -8%
[1]
  pIC50: 6.73
[2]
  Cell viability: 124%
[3]
  Human (%): 93.7%
[4]
  Rat (%): 82.2%
[5]
  Mouse (%): 87.9%

## Cc1cc(NN=C(C#N)C#N)ccc1OCc1cc2ccccc2s1 [Compound 150, (4-(benzo[b]thiophen-2-ylmethoxy)-3-methylphenyl)carbonohydrazonoyl dicyanide]
[1]; [7]
  remaining activity at 3 µM: 11%
[2]
  Cell viability: 118%
[3]
  Human (%): 80.7%
[4]
  Rat (%): 78.7%
[5]
  Mouse (%): 99.5%

## COc1cc(NN=C(C#N)C#N)ccc1OCc1ccc(C(F)(F)F)cc1 [Compound 155, (3-methoxy-4-(4-(trifluoromethyl)benzyloxy)phenyl)carbonohydrazonoyl dicyanide]
[1]; [7]
  remaining activity at 3 µM: -43%
[2]
  Cell viability: 80%
[3]
  Human (%): 95.4%
[4]
  Rat (%): 82%
[5]
  Mouse (%): 90.8%

## Cc1cc(NN=C(C#N)C#N)ccc1OCc1nc2ccccc2s1 [Compound 157, (4-(benzo[d]thiazol-2-ylmethoxy)-3-methylphenyl)carbonohydrazonoyl dicyanide]
[1]; [7]
  remaining activity at 3 µM: 8%
[2]
  Cell viability: 124%
[3]
  Human (%): 69.1%
[4]
  Rat (%): 46%
[5]
  Mouse (%): 33.2%

## COc1cc(NN=C(C#N)C#N)ccc1OCc1cc2ccccc2s1 [Compound 158, (4-(benzo[b]thiophen-2-ylmethoxy)-3-methoxyphenyl)carbonohydrazonoyl dicyanide]
[1]; [7]
  remaining activity at 3 µM: -33%
[1]
  pIC50: 6.57
[2]
  Cell viability: 96%
[3]
  Human (%): 36.9%
[4]
  Rat (%): 48.2%
[5]
  Mouse (%): 73.7%

## COc1cc(NN=C(C#N)C#N)ccc1OCc1ncccn1 [Compound 161, (3-methoxy-4-(pyrimidin-2-ylmethoxy)phenyl)carbonohydrazonoyl dicyanide]
[1]; [7]
  remaining activity at 3 µM: -17%
[1]
  pIC50: 6.96
[2]
  Cell viability: 119%

## COc1cc(NN=C(C#N)C#N)ccc1OCc1nc2ccccc2[nH]1 [Compound 163, (4-((1H-benzo[d]imidazol-2-yl)methoxy)-3-methoxyphenyl)carbonohydrazonoyl dicyanide]
[1]; [7]
  remaining activity at 3 µM: 91%
[2]
  Cell viability: 106%
[3]
  Human (%): 86.9%
[4]
  Rat (%): 71.3%
[5]
  Mouse (%): 59.5%

## COc1cc(NN=C(C#N)C#N)ccc1OCc1cccnn1 [Compound 164, (3-methoxy-4-(pyridazin-3-ylmethoxy)phenyl)carbonohydrazonoyl dicyanide]
[1]; [7]
  remaining activity at 3 µM: -1%
[1]
  pIC50: 7.02
[2]
  Cell viability: 109%
[3]
  Human (%): 96.8%
[4]
  Rat (%): 29.1%
[5]
  Mouse (%): 24.6%

## COc1cc(NN=C(C#N)C#N)ccc1OCc1nc2ccccc2s1 [Compound 165, (4-(benzo[d]thiazol-2-ylmethoxy)-3-methoxyphenyl)carbonohydrazonoyl dicyanide]
[1]; [7]
  remaining activity at 3 µM: -40%
[2]
  Cell viability: 113%
[3]
  Human (%): 42.4%
[4]
  Rat (%): 42.4%
[5]
  Mouse (%): 69.6%

## COc1cc(NN=C(C#N)C#N)ccc1OCc1nc2ccccc2o1 [Compound 166, (4-(benzo[d]oxazol-2-ylmethoxy)-3-methoxyphenyl)carbonohydrazonoyl dicyanide]
[1]; [7]
  remaining activity at 3 µM: -43%
[1]
  pIC50: 6.67
[2]
  Cell viability: 121%
[3]
  Human (%): 6.6%
[4]
  Rat (%): 6.5%
[5]
  Mouse (%): 68.1%

## COc1cc(NN=C(C#N)C#N)ccc1OCc1cscn1 [Compound 167, (3-methoxy-4-(thiazol-4-ylmethoxy)phenyl)carbonohydrazonoyl dicyanide]
[1]; [7]
  remaining activity at 3 µM: -38%
[1]
  pIC50: 8.00
[2]
  Cell viability: 118%

## COc1cc(NN=C(C#N)C#N)ccc1OCc1csc(C)n1 [Compound 171, (3-methoxy-4-((2-methylthiazol-4-yl)methoxy)phenyl)carbonohydrazonoyl dicyanide]
[3]
  Human (%): 79.2%
[4]
  Rat (%): 80.3%
[5]
  Mouse (%): 70.3%

## COc1cc(NN=C(C#N)C#N)ccc1OCc1cccs1 [Compound 172, (3-methoxy-4-(thiophen-2-ylmethoxy)phenyl)carbonohydrazonoyl dicyanide]
[3]
  Human (%): 73.3%
[4]
  Rat (%): 65.3%
[5]
  Mouse (%): 57.3%

## COc1cc(NN=C(C#N)C#N)ccc1OCc1cnn(C)c1 [Compound 174, (3-methoxy-4-((1-methyl-1H-pyrazol-4-yl)methoxy)phenyl)carbonohydrazonoyl dicyanide]
[3]
  Human (%): 72%
[4]
  Rat (%): 54.3%
[5]
  Mouse (%): >100%

## (2-methoxy-4-(5-methylpyrazine-2-carboxamido)phenyl)carbonohydrazonoyl dicyanide [Compound 4]
[1]; [6]
  Response (% @10 μM): 30.7%
[2]
  Cell viability (% @10 μM): 67%
